Experimental data published in ChEMBL document CHEMBL5236622, “Krasilnikolides A and B and Detalosylkrasilnikolide A, Cytotoxic 20-Membered Macrolides from the Genus Krasilnikovia: Assignment of Anomeric Configuration by J-Based Configuration Analysis” (J Nat Prod, 2022).
In brackets after ≈: the same amount, converted by molar mass.

Columns and labels:
Kocuria rhizophila = experiment: Antibacterial activity against Kocuria rhizophila ATCC9341 assessed as inhibition of bacterial growth incubated for 20 hrs by liquid microculture method; type: functional
P388 = experiment: Cytotoxicity against mouse P388 cells assessed as inhibition of cell growth incubated for 48 hrs by MTT assay; type: functional, cell-based; conditions: P388, 48 h
Staphylococcus aureus = experiment: Antibacterial activity against Staphylococcus aureus FDA209P JC-1 assessed as inhibition of bacterial growth incubated for 20 hrs by liquid microculture method; type: functional

MIC (Kocuria rhizophila)	MIC (Staphylococcus aureus)	Compound	IC50 (P388)
25 µg/mL (≈ 51.2 µM)		C/C=C(\C)[C@H]1OC(=O)[C@H](C)[C@@H](O)/C(C)=C/C=C/[C@H](C)C/C(C)=C/[C@@H](C)[C@H](O)C[C@@H](O)/C(C)=C/[C@H]1C	3.9 µM
25 µg/mL (≈ 38.5 µM)		C/C=C(\CC)[C@H]1OC(=O)[C@H](C)[C@@H](O[C@@H]2O[C@@H](C)[C@@H](O)[C@@H](O)[C@H]2O)/C(C)=C/C=C/[C@H](C)C/C(C)=C/[C@@H](C)[C@H](O)C[C@@H](O)/C(C)=C/[C@H]1C	8.4 µM
25 µg/mL (≈ 39.4 µM)	50 µg/mL (≈ 78.8 µM)	C/C=C(\C)[C@H]1OC(=O)[C@H](C)[C@@H](O[C@@H]2O[C@@H](C)[C@@H](O)[C@@H](O)[C@H]2O)/C(C)=C/C=C/[C@H](C)C/C(C)=C/[C@@H](C)[C@H](O)C[C@@H](O)/C(C)=C/[C@H]1C	13.9 µM
